Results published in article PMC11224556, “Next-generation of BBQ analogues that selectively target breast cancer” (Frontiers in Chemistry, 2024).
Where two headings read alike, the source gives them in different places.

Legend:
Assay type in all cases: cell-based, human
A2780 (ovary) cells = assay: MTT growth inhibition assay (72 h)
Excerpt: (§1) Each BBQ analogue, 2-14 was screened for their growth inhibition ability (GI50) in a broad panel of cancer cell lines and a non-cancer breast cell line (MCF10A), using the MTT growth inhibition assay (Table 1) ([Baker et al., 2021b]). The cancer panel comprised HT29 (colorectal), U87 (brain), SJ-G2 (brain), A2780 (ovary), Du145 (prostate), BE2-C (neuronal), MIA (pancreas), H460 (lung, ER+), A431 (vulva, ER+ (estrogen receptor positive)), and a wide selection of breast cancer cell lines with varying receptor status including MCF-7 (ER + luminal A), T47D (ER/PR+ (progesterone receptor positive)luminal A), ZR-75-1 (ER/PR + luminal A), BT-474 (ER/PR/HER2+ luminal B), SKBR-3 (HER2+), MDA-MB-468, BT20, and MDA-MB-231 (basal, triple negative (TN) for ER, PR, and HER2).
(§2) Stock solutions were prepared as follows and stored as 20 mM DMSO solutions at −20 °C. All cell lines were cultured in a humidified atmosphere 5% CO2 at 37 °C. The cancer cell lines were maintained in Dulbecco’s modified Eagle’s medium (DMEM) (Trace Biosciences, Australia) supplemented with 10% foetal bovine serum (FBS), 10 mM sodium bicarbonate, penicillin (100 IU/mL), streptomycin (100 μg/mL), and glutamine (4 mM). The non-cancer MCF10A cell line was cultured in DMEM:F12 (1:1) cell culture media, 5% heat inactivated horse serum, supplemented with penicillin (50 IU/mL), streptomycin (50 μg/mL), 20 mM Hepes, L-glutamine (2 mM), epidermal growth factor (20 ng/mL), hydrocortisone (500 ng/mL), cholera toxin (100 ng/mL), and insulin (10 μg/mL). The AhR reporter cell line HT29-Lucia™ (Invivogen, United States) was maintained in DMEM supplemented with 10% heat inactivated FBS, L-glutamine (2 mM), penicillin (100 IU/mL), streptomycin (100 μg/mL), 100 μg/mL Normocin™, and 100 μg/mL of the selective antibiotic Zeocin™. All cell lines were purchased from the American Type Culture Collection (ATCC), except for A2780 and A431 which were from the European Collection of Authenticated Cell Cultures (ECACC), and SJ-G2 cell line which was from Dr Mary Danks, St Jude Children’s Research hospital, Memphis, TN.
(§3) Cells in logarithmic growth were transferred to 96-well plates. Cytotoxicity was determined by plating cells in duplicate in 100 μL medium at a density of 2,500–4,000 cells/well in 96 well plates. On day 0, (24 h after plating) when the cells were in logarithmic growth 100 μL medium with or without the test agent was added to each well. After 72 h drug exposure growth inhibitory effects were evaluated using the MTT (3-[4,5-dimethylthiazol-2-yl]-2,5-diphenyltetrazolium bromide) assay with absorbance read at 540 nm. An eight-point dose response curve was produced, using MS Excel software. From these dose-response curves, the GI50 value was calculated, representing the drug concentration at which cell growth is 50% inhibited based on the difference between the optical density values on day 0 and those at the end of drug exposure ([Bradshaw et al., 2008]; [Zhang et al., 2009]). Each data point was conducted in duplicate and the mean ± S.E.M. calculated from four to five replicates (n = 4 or 5), which were performed on separate occasions and separate cell line passages. Where shown, significant test results were determined using T-test analysis at p < 0.01 and p < 0.05 with a two tail distribution.

A431 (vulva/skin) cells = assay: MTT growth inhibition assay (72 h)
Excerpt: as §1, §2, §3

BE2-C (neuronal) cells = assay: MTT growth inhibition assay (72 h); details: Neuron
Excerpt: as §1, §2, §3

BT20 breast cancer cells = assay: MTT growth inhibition assay (72 h)
Excerpt: as §1, §2, §3

[1] = test system: BT474 breast cancer cells; assay: MTT growth inhibition assay (72 h)
Excerpt: as §1, §2, §3

Du145 (prostate) cells = assay: MTT growth inhibition assay (72 h)
Excerpt: as §1, §2, §3

H460 (lung) cells = assay: MTT growth inhibition assay (72 h)
Excerpt: as §1, §2, §3

HT29 (colorectal) cells = assay: MTT growth inhibition assay (72 h)
Excerpt: as §1, §2, §3

[2] = test system: MCF-7 breast cancer cells; assay: MTT growth inhibition assay (72 h)
Excerpt: as §1, §2, §3

[3] = test system: MCF10A normal breast cells; assay: MTT growth inhibition assay (72 h)
Excerpt: as §1, §2, §3

[4] = test system: MDA-MB-231 breast cancer cells; assay: MTT growth inhibition assay (72 h); details: MDA-MB-231, Breast (TN)
Excerpt: as §1, §2, §3

[5] = test system: MDA-MB-468 breast cancer cells; assay: MTT growth inhibition assay (72 h); details: MDA-MB-468, Breast (TN)
Excerpt: as §1, §2, §3

MIA (pancreas) cells = assay: MTT growth inhibition assay (72 h)
Excerpt: as §1, §2, §3

SJ-G2 (brain) cells = assay: MTT growth inhibition assay (72 h); details: SJ-G2, Brain (GBM)
Excerpt: as §1, §2, §3

[6] = test system: SKBR3 breast cancer cells; assay: MTT growth inhibition assay (72 h)
Excerpt: as §1, §2, §3

T47D breast cancer cells = assay: MTT growth inhibition assay (72 h); details: Breast (ER/PR)
Excerpt: as §1, §2, §3

U87 (brain) cells = assay: MTT growth inhibition assay (72 h); details: U87, Brain (GBM)
Excerpt: as §1, §2, §3

[7] = test system: ZR-75-1 breast cancer cells; assay: MTT growth inhibition assay (72 h); details: ZR-75-1, Breast (ER/PR)
Excerpt: as §1, §2, §3

[8] = test system: broad panel of cancer cell lines and non-cancer breast cell line MCF10A; assay: MTT growth inhibition: GI50 ranges and selectivity across the cell line panel
Excerpt: as §1, §2, §3

[9] = Homo sapiens, A-431, A431, Skin (ER)
[10] = Homo sapiens, BT-20, BT20, Breast (TN)
[11] = Homo sapiens, BT-474, BT474, Breast (ER/PR/HER2)
[12] = Homo sapiens, NCI-H460, H460, Lung (ER)
[13] = Homo sapiens, HT-29, HT29, Colon
[14] = Homo sapiens, MCF7, MCF-7, Breast (ER)
[15] = Homo sapiens, SK-BR-3, SKBR3, Breast (HER2)

| Molecule | GI50 (A2780 (ovary) cells; Homo sapiens) [µM] | GI50 (A431 (vulva/skin) cells; [9]) [µM] | GI50 (BE2-C (neuronal) cells; Homo sapiens, BE(2)-C) [µM] | GI50 (BT20 breast cancer cells; [10]) [µM] | GI50 [1, 11] [µM] | GI50 (Du145 (prostate) cells; Homo sapiens, DU-145) [µM] | GI50 (H460 (lung) cells; [12]) [µM] | GI50 (HT29 (colorectal) cells; [13]) [µM] | GI50 [2, 14] [µM] | GI50 ([3]; Homo sapiens, MCF-10A) [µM] | GI50 ([4]; Homo sapiens) [µM] | GI50 (MIA (pancreas) cells; Homo sapiens) [µM] | GI50 (SJ-G2 (brain) cells; Homo sapiens) [µM] | GI50 [6, 15] [µM] | GI50 (T47D breast cancer cells; Homo sapiens) [µM] | GI50 (U87 (brain) cells; Homo sapiens) [µM] | GI50 ([7]; Homo sapiens) [µM] | GI50 ([5]; Homo sapiens) [µM] | further results |
| --- | --- | --- | --- | --- | --- | --- | --- | --- | --- | --- | --- | --- | --- | --- | --- | --- | --- | --- | --- |
| 10-Methyl-7H-benzo[de]benzo[4,5]imidazo[2,1-a]isoquinolin-7-one (7a) and 11-methyl-7H-benzo[de]benzo[4,5]imidazo[2,1-a]isoquinolin-7-one (7b) [Compound 7] | – | – | – | – | – | – | – | – | – | – | – | – | – | – | – | – | – | – | GI50 (A2780 (ovary) cells): 5.2 ± 0.63 µM; GI50 (A431 (vulva/skin) cells; A431, Skin (ER)): 4.8 ± 0.7 µM; GI50 (BE2-C (neuronal) cells): 4.9 ± 0.09 µM; GI50 (BT20 breast cancer cells; BT20, Breast (TN)): 5.2 ± 2 µM; GI50 ([1]; BT474, Breast (ER/PR/HER2)): > 50 µM; GI50 (Du145 (prostate) cells): 37 ± 7.8 µM; GI50 (H460 (lung) cells; H460, Lung (ER)): 45 ± 8 µM; GI50 (HT29 (colorectal) cells; HT29, Colon): 5 ± 0.07 µM; GI50 ([2]; MCF-7, Breast (ER)): 3.6 ± 0.4 µM; GI50 [3]: 4.7 ± 0.12 µM; GI50 [4]: 25 ± 7.1 µM; GI50 [5]: 0.35 ± 0.13 µM; GI50 (MIA (pancreas) cells): 8.1 ± 0.97 µM; GI50 (SJ-G2 (brain) cells): > 50 µM; GI50 ([6]; SKBR3, Breast (HER2)): 1.2 ± 0.93 µM; GI50 (T47D breast cancer cells): 3.1 ± 0.17 µM; GI50 (U87 (brain) cells): 17 ± 2.7 µM; GI50 [7]: 0.19 ± 0.045 µM |
| O=c1c2cccc3cccc(c32)c2nc3ccccc3n12 [Compound 5, 7H-Benzo[de]benzo[4,5]imidazo[2,1-a]isoquinolin-7-one] | 2.2 ± 0.21 | 0.05 ± 0.013 | 5.1 ± 0.74 | 0.41 ± 0.39 | 1.5 ± 1.3 | 4.1 ± 0.03 | 0.61 ± 0.13 | 2.1 ± 0.3 | 2.1 ± 0.44 | 3.2 ± 0.32 | 5.5 ± 1.8 | 5.2 ± 0.73 | 4.6 ± 0.23 | 0.032 ± 0.014 | 0.2 ± 0.073 | 7 ± 0.033 | 0.026 ± 0.015 | – | fold greater response (selectivity) in MDA-MB-468 than in normal MCF10A breast cells ([8]; GI50 MCF10A / GI50 MDA-MB-468): 3,200 fold; growth inhibition compared with normal cells (fold, range over cell lines) ([8]; H460, A431, T47D, ZR-75-1, SKBR3, MDA-MB-468, BT20 vs MCF10A): 5 to 3200 fold; GI50 ([8]; Homo sapiens, T47D, ZR-75-1, SKBR3, MDA-MB-468 and BT20, read-out: GI50 (range over cell lines)): 0.001 to 0.41 µM; GI50 ([8]; Homo sapiens, all other cell populations (than H460, A431, T47D, ZR-75-1, SKBR3, MDA-MB-468, BT20), read-out: GI50 (range over cell lines)): 1.5 to 7 µM; GI50 ([8]; Homo sapiens, other cell lines HT29, U87, SJ-G2, A2780, DU145, BE2-C, MIA, MDA-MB-231, read-out: GI50 (range over cell lines)): 2.1 to 7 µM; fold more potent than head group substituted analogues 3, 4, 6, 7, 8 and 9 ([8]; across the cell lines examined (Table 1)): > 10 fold; GI50 ([8]; select breast cancer cell lines MCF-7, T47D, ZR-75-1, SKBR3, MDA-MB-468, BT20, BT474, read-out: GI50 values (range over cell lines)): 0.001 to 2.1 µM |
| O=c1c2ccccc2cc2[nH]c3ccccc3n12 [Compound 12, Benzo[4,5]imidazo[1,2-b]isoquinolin-11(5H)-one] | 3 ± 2.1 | 0.48 ± 0.1 | 0.24 ± 0.079 | 0.16 ± 0.048 | > 50 | > 50 | > 50 | 0.21 ± 0.056 | 0.12 ± 0.05 | 0.54 ± 0.07 | > 50 | 0.62 ± 0.16 | 43 ± 10.3 | 0.2 ± 0.071 | 0.164 ± 0.083 | > 50 | 0.17 ± 0.023 | 0.141 ± 0.074 | – |
| O=C(O)c1ccc2c3c1cccc3c(=O)n1c3ccccc3nc21 [Compound 14, reference compound] | 12 ± 0.91 | 28 ± 5.1 | 6.9 ± 1.6 | 50 | > 50 | 21 ± 2 | 20 ± 0.33 | – | > 50 | 15 ± 0.58 | 50 | 20 ± 0.67 | 13 ± 1.2 | 21 ± 0.67 | 16 ± 0.58 | 25 ± 1.7 | 24 ± 3.3 | 6.13 ± 3.05 | – |
